Where two headings read alike, the source gives them in different places.
What was measured:
CYP3A4 mRNA = experiment: in vitro; conditions: for Fold‐change method: Fold change: highest dose tested (40 µM fenfluramine, 50 µM norfenfluramine); for Fold‐change method: % of control: percent of positive control induction of mRNA; for Basic kinetic model: Emax (fold) / EC50: ± standard error; for Basic kinetic model: Emax (fold): fit of fold‐change −1 values
Method: Cells were then harvested to isolate RNA, which was analyzed by quantitative reverse transcription‐polymerase chain reaction (qRT‐PCR) for induction of CYP1A2, CYP2B6, and CYP3A4 mRNA levels. Total RNA was phase extracted with TRIzol followed by purification with an RNeasy Mini Kit (Qiagen Inc., Germantown, MD). Quantitative PCR was performed in triplicate with a 7900HT Fast Real Time PCR System, an Applied Biosystems Universal Master Mix, and TaqMan® Gene Expression Assays. The quantity of target cDNA relative to control cDNA (GAPDH) was determined by the ΔΔCT method (Applied Biosystems User Bulletin #2). Relative quantitation measures the change in mRNA expression in a test sample relative to that in the control sample (i.e., DMSO). This method assumes that the efficiency of target amplification and the efficiency of endogenous control amplification are approximately equal.
mRNA assessment was conducted using a quantitative reverse transcription-polymerase chain reaction (qRT-PCR) according to the Applied Biosystems protocol. Each PCR was performed in triplicate. A Primer Mix was prepared for each Gene Expression assay. A typical Primer Mix contained TaqMan Fast Advanced Master Mix (1X), Gene Expression Assay (1X, 900 nM forward and reverse primers) and ribonuclease (RNase)-free water. The Reaction Mix was prepared by adding the Primer Mix to cDNA. A percentage of samples (no less than 10%) included NACs. […] The relative quantity of the target cDNA compared with that of the control cDNA (GAPDH) was determined by the ΔΔCt method (Applied Biosystems User Bulletin #2). Relative quantitation measures the change in mRNA expression in a test sample relative to that in a control sample (eg, dimethyl sulfoxide [DMSO]). This method assumes that the efficiency of the target amplification and the efficiency of the endogenous control amplification are approximately equal.
This software analyzes relative gene expression using the comparative Ct method (ΔΔCt), which relates the PCR signal of the target transcript to the PCR signal of the target in an untreated control. Both the treated sample and the untreated control signals are normalized to the endogenous control (GAPDH), for which expression is not affected by treatment and expression is constant throughout the tissue being tested.
The level of mRNA expression relative to the positive control was calculated as follows: […]

OATP1B1 = target: T1, OATP1B1 (Homo sapiens, UniProt Q9Y6L6); experiment: Transporter inhibition, uptake of [3H]-estradiol-17β-glucuronide in HEK293 cells; format: in vitro ADME
T1 construct: host or cells: HEK293
T1 sequence (Q9Y6L6 1-691): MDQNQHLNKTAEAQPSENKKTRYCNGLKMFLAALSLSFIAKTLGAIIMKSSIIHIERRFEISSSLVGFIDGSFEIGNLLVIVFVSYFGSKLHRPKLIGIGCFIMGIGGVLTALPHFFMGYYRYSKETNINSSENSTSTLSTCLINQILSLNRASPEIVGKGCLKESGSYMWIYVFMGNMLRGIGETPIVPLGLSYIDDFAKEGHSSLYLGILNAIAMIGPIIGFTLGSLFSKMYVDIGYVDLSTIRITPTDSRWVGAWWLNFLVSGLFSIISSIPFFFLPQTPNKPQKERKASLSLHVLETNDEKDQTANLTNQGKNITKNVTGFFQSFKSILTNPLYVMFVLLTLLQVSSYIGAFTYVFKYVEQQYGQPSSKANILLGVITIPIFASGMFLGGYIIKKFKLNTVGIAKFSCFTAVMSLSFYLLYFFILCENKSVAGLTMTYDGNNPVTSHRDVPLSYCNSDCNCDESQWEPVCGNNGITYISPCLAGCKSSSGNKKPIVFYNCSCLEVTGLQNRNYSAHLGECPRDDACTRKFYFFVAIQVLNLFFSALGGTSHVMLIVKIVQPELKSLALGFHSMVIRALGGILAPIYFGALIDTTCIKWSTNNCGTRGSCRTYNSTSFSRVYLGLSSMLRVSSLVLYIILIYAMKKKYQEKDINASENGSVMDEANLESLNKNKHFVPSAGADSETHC
Method: (§1) The test compound (FFA or nFFA) or the positive control substrate ([…], respectively) was added to the donor chamber. […] Cells were then washed, lysed with scintillation cocktail, and analyzed for the probe substrate with a MicroBeta scintillation counter (PerkinElmer, Hopkinton, MA). Transcellular transporter assay conditions are described in Supplemental Table 1. Calculation of IC50 values was based on bidirectional permeability of probe substrate with and without the inhibitor in MDCKII cells expressing BCRP and in Caco‐2 cells expressing P‐gp, and transporter‐dependent uptake of probe substrate in HEK293 cells expressing all other transporters (Supplemental Table 1).
(§2) The transporter-specific uptake of the probe substrate in cells was determined by subtracting the accumulation in the control cells from the accumulation in the transporter-expressing cells.

OATP1B3 = target: T2, OATP1B3 (Homo sapiens, UniProt Q9NPD5); experiment: as above; format: in vitro ADME
T2 construct: host or cells: HEK293
T2 sequence (Q9NPD5 1-702): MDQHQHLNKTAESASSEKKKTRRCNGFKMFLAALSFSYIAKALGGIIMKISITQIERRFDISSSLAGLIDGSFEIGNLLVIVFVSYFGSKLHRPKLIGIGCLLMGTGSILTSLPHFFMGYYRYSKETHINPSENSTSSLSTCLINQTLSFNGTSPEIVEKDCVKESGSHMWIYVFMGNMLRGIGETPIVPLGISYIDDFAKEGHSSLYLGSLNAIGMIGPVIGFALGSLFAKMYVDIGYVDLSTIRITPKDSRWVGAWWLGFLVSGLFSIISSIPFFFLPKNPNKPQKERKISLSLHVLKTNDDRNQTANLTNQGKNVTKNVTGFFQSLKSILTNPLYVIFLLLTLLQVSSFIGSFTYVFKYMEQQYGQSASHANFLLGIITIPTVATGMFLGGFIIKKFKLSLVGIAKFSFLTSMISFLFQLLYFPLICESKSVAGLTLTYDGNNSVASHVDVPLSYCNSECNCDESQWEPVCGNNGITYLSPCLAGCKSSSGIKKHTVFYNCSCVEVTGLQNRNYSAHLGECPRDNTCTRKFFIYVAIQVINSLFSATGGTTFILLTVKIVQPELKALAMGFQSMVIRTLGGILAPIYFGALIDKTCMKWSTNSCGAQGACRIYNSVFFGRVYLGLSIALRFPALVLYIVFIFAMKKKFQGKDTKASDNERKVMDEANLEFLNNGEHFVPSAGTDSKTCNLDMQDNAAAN
Method: as §1, §2

CYP2C19 = CYP2C19 (Homo sapiens, UniProt P33261); experiment: Direct CYP450 inhibition in human liver microsomes (S-mephenytoin 4'-hydroxylation); conditions: for Inhibition (%): FFA up to 60 µM, nFFA up to 100 µM; for Basic model: R1: R1 = 1 + (Imax,u/Ki,u)
Text: A mixed‐gender pool of 200 individual human liver microsomal samples was used.
This LIMS utilizes the Levenberg-Marquardt algorithm to perform nonlinear regression fitting of the data to the following 4-parameter sigmoidal-logistic IC50 equation:
As percent of control values are utilized, the Min is set to 0 and the Max is set to 100 (or other values, as appropriate). […] Therefore, when an IC50 value falls outside the concentration range studied, the IC50 values are reported to be greater than the highest concentrations of test article evaluated.

[1] = HEK293, probe [3H]-estradiol-17β-glucuronide 50 nM, read-out: IC50
[2] = direct inhibition, substrate S-mephenytoin

CYP2C19, sequence (P33261 whole entry): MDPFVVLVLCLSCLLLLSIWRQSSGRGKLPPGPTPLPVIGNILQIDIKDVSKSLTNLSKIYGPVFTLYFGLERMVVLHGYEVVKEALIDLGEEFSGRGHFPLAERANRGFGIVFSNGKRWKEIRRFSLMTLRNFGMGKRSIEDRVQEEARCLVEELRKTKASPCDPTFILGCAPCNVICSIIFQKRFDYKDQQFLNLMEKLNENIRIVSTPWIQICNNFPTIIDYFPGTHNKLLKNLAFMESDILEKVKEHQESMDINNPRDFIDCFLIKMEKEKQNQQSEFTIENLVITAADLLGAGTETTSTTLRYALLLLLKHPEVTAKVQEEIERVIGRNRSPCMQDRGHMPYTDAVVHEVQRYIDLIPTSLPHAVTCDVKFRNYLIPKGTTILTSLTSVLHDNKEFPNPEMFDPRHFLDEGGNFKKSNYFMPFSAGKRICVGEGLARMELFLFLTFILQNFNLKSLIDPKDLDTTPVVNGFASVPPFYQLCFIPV

Question: Which results are given for `CC(N)Cc1cccc(C(F)(F)F)c1.Cl` (stereo not shown) [nFFA, [1‐(3‐trifluoromethyl)phenyl]propan‐2‐amine hydrochloride]?
Answer: Basic kinetic model: Potential to induce (CYP3A4 mRNA; hepatocytes HC7‐8): Yes; Basic kinetic model: R3 (CYP3A4 mRNA; hepatocytes HC7‐8): 0.79; Fold‐change method: Potential to induce (CYP3A4 mRNA; hepatocytes HC7‐8): Yes; Static mechanistic model: Potential to induce (CYP3A4 mRNA; hepatocytes HC7‐8): No (AUCR <0.8 to denote induction); Fold‐change method: Fold change (CYP3A4 mRNA; hepatocytes HC7‐8): 4.91 fold; Fold‐change method: % of control (CYP3A4 mRNA; hepatocytes HC7‐8): 3.68%; Basic kinetic model: Emax (fold) (CYP3A4 mRNA; hepatocytes HC7‐8): 3.92 ± 0.048 fold; Basic kinetic model: Potential to induce (CYP3A4 mRNA; hepatocytes HC10‐8): No; Basic kinetic model: R3 (CYP3A4 mRNA; hepatocytes HC10‐8): 0.86; Fold‐change method: Potential to induce (CYP3A4 mRNA; hepatocytes HC10‐8): Yes; Static mechanistic model: Potential to induce (CYP3A4 mRNA; hepatocytes HC10‐8): No (AUCR <0.8 to denote induction); Fold‐change method: Fold change (CYP3A4 mRNA; hepatocytes HC10‐8): 5.75 fold; Fold‐change method: % of control (CYP3A4 mRNA; hepatocytes HC10‐8): 15.30%; Basic kinetic model: Emax (fold) (CYP3A4 mRNA; hepatocytes HC10‐8): 6.95 ± 1.0 fold; Basic kinetic model: Potential to induce (CYP3A4 mRNA; hepatocytes HC10‐10): No; Basic kinetic model: R3 (CYP3A4 mRNA; hepatocytes HC10‐10): 0.84; Fold‐change method: Potential to induce (CYP3A4 mRNA; hepatocytes HC10‐10): Yes; Static mechanistic model: Potential to induce (CYP3A4 mRNA; hepatocytes HC10‐10): No (AUCR <0.8 to denote induction); Fold‐change method: Fold change (CYP3A4 mRNA; hepatocytes HC10‐10): 4.57 fold; Fold‐change method: % of control (CYP3A4 mRNA; hepatocytes HC10‐10): 4.85%; Basic kinetic model: Emax (fold) (CYP3A4 mRNA; hepatocytes HC10‐10): 3.61 ± 0.40 fold; EC50 (CYP3A4 mRNA; read-out: Basic kinetic model: EC50, hepatocytes HC7‐8): 12.9 ± 0.38 µM; EC50 (CYP3A4 mRNA; read-out: Basic kinetic model: EC50, hepatocytes HC10‐8): 37.8 ± 5.6 µM; EC50 (CYP3A4 mRNA; read-out: Basic kinetic model: EC50, hepatocytes HC10‐10): 17.1 ± 3.9 µM; IC50 (OATP1B1; [1]): > 50 µM; IC50 (OATP1B3; [1]): > 50 µM; IC50 (CYP2C19; direct inhibition, human liver microsomes, substrate S-mephenytoin): > 100 µM; Inhibition (%) (CYP2C19; [2]): 2.9%; Basic model: Potential for clinical inhibition (CYP2C19; substrate S-mephenytoin): No (Potential to inhibit if R1 ≥ 1.02); Static mechanistic model: Potential for clinical inhibition (CYP2C19; substrate S-mephenytoin): No (Potential to inhibit if AUCR ≥ 1.25); Basic model: R1 (CYP2C19; substrate S-mephenytoin): 1.00

Question: What does the source list for `CCNC(C)Cc1cccc(C(F)(F)F)c1` (racemic) [FFA, (RS)‐ethyl(α‐methyl‐3‐trifluoromethylphenethyl)amine, reference compound]?
Answer: Static mechanistic model: Potential to induce (CYP3A4 mRNA): No (key: Yes: AUCR <0.8 to denote induction; No: AUCR <0.8 to denote induction); EC50 (CYP3A4 mRNA; human, Basic kinetic model: EC50, hepatocytes HC7‐8): 8.53 ± 4.3 µM; EC50 (CYP3A4 mRNA; human, Basic kinetic model: EC50, hepatocytes HC10‐8): 20.4 ± 1.9 µM; EC50 (CYP3A4 mRNA; human, Basic kinetic model: EC50, hepatocytes HC10‐10): 9.05 ± 3.6 µM; CYP3A4 induction (abstract) (CYP3A4 mRNA; human, hepatocytes): 1.9-3.0 fold; IC50 (OATP1B1): > 300 µM; IC50 (OATP1B3): > 300 µM; IC50 (CYP2C19): > 60 µM; Inhibition (%) (CYP2C19; [2]): 14%; Basic model: Potential for clinical inhibition (CYP2C19; substrate S-mephenytoin): No (Potential to inhibit if R1 ≥ 1.02); Static mechanistic model: Potential for clinical inhibition (CYP2C19; substrate S-mephenytoin): No (Potential to inhibit if AUCR ≥ 1.25); Basic model: R1 (CYP2C19; substrate S-mephenytoin): 1.01
